This assay deals with human Th17 cells. Briefly: Cytokine response by in vitro-polarized human Th17 cells stimulated with PMA/ionomycin. The settings on record: 10 μM compound, PMA/ionomycin 20 h. It is filed as cell-based. The method, then: In vitro differentiation of human Th17 cells: Human CD4+ T cells (isolated as described in protocol A) were polarized into Th17 cells as follows: Tissue culture-treated 100 mm plates (Corning, Corning, N.Y.) were coated with 10 μg/ml anti-human CD3 clone OKT3 antibody overnight at 4° C. Polarization was initiated by seeding approximately 2-3 e7 human CD4+ T cells onto the anti-CD3 plates in Polarization media consisting of: RPMI 1640 medium (Lonza, Allendale, N.J.) supplemented with 10% (v/v) charcoal-dextran treated, heat inactivated FBS (Omega Scientific, Tarzana, Calif.), 0.05 mM 2-Mercaptoethanol (Sigma-Aldrich, St. Louis, Mo.), and 1×Pen/Strep Amphotericin B (Lonza), with added recombinant human IL-23 (40 ng/ml) and anti-CD28 clone CD28.2 antibody (2 μg/ml); all recombinant human cytokines and anti-human neutralizing antibodies were purchased from eBioscience (San Diego, Calif.). Cells were incubated in the above Polarization media for 3 days at 37° C. in a humidified atmosphere at 5% CO2. After 3 days, the Polarization media was replaced with Maintenance media, consisting of RPMI 1640/FBS/2-Mercaptoethanol/Pen/Strep Amphotericin B supplemented with recombinant human IL-23 (40 ng/ml) alone, and the cells were re-plated onto regular tissue-culture-treated plates (not anti-CD3 coated). Cells were incubated in the Maintenance media for an additional 3 days at 37° C. in a humidified atmosphere at 5% CO2.
Inhibition of PMA/ionomycin-stimulated cytokine response by in vitro-differentiated human Th17 cells: Human Th17 cells, generated as described above, were seeded at 2e6 cells/ml in RPMI 1640 containing 10% (v/v) charcoal-dextran treated, heat inactivated FBS (Omega Scientific, Tarzana, Calif.), 0.05 mM 2-Mercaptoethanol (Sigma-Aldrich, St. Louis, Mo.), and 1×Pen/Strep Amphotericin B (Lonza, Allendale, N.J.). Cells were pre-treated with test compounds (10 μM) for 1 h at 37° C. in a humidified atmosphere at 5% CO2. Cells were then stimulated with 50 ng/ml phorbol 12-myristate 13-acetate (PMA) (Sigma-Aldrich, St. Louis, Mo.)+1 μg/ml ionomycin (Life Technologies, Grand Island, N.Y.) for 20 h at 37° C. in a humidified atmosphere at 5% CO2. Supernatant was collected and analyzed using Bio-Plex Pro Human Th17 Cytokine 15-Plex Panel (Bio-Rad Laboratories, Hercules, Calif.) as per manufacturer's protocols. Magnetic beads were read on the Bio-Plex MAGPIX multiplex reader instrument using the accompanying xPONENT 4.2 acquisition software (Bio-Rad Laboratories). Data were analyzed via the Bio-Plex Manager software v6.1 (Bio-Rad Laboratories). Cytokine secretion levels from Th17 cells treated with 0.1% DMSO+Stimulation were normalized to 100%.
IL-1β, IL-25, and IL-33 were below the limit of detection under conditions used. The concentrations of the observed analytes from top to bottom, as listed, are as follows: 8899, 567, 174, 99, 10380, 511, 239, 548, 81, 966, 504, and 76223 pg/ml.

[1] abbreviates: read-out: Percent inhibition of IFNγ (relative to DMSO control).
[2] abbreviates: read-out: Percent inhibition of IL-4 (relative to DMSO control).
Setting [3] is: read-out: Percent inhibition of IL-6 (relative to DMSO control).
The mark [4] stands for this setting: read-out: Percent inhibition of IL-10 (relative to DMSO control).
Where [5] appears, read: read-out: Percent inhibition of IL-17A (relative to DMSO control).
[6] abbreviates: read-out: Percent inhibition of IL-17F (relative to DMSO control).
The mark [7] stands for this setting: read-out: Percent inhibition of IL-21 (relative to DMSO control).
Where [8] appears, read: read-out: Percent inhibition of IL-22 (relative to DMSO control).
The mark [9] stands for this setting: read-out: Percent inhibition of IL-23 (relative to DMSO control).
Setting [10] is: read-out: Percent inhibition of IL-31 (relative to DMSO control).
Where [11] appears, read: read-out: Percent inhibition of TNFα (relative to DMSO control).
Where [12] appears, read: read-out: Percent inhibition of sCD40L (relative to DMSO control).

In general, inhibition refers to the drop in the measured response relative to a control, in per cent.

Where two headings read alike, the source gives them in different places.

In the case of `CCOc1cc(C(=O)N2CCNCC2)ccc1Nc1cc2c(cn1)N(C)C(=O)c1ccccc1N2C` [Compound 62], the inhibition at 10 µM is 11.7% under setting [1]; -17% under setting [2]; 87.8% under setting [3]; 80.3% under setting [4]; 27.7% under setting [5]; 60% under setting [6]. In addition, the inhibition at 10 µM under setting [7] came to 2.5%; the inhibition at 10 µM under setting [8] stood at 66.2%; the inhibition at 10 µM under setting [9] came out at 15.8%; the inhibition at 10 µM under setting [10] is -1.4%; the inhibition at 10 µM under setting [11] was -10.4%; the inhibition at 10 µM under setting [12] amounted to 31.9%.

For the compound `CCOc1cc(C(=O)N2CCC(N3CCN(C)CC3)CC2)ccc1Nc1cc2c(cn1)N(C)C(=O)c1occc1N2C` [Compound 65], the inhibition at 10 µM is -0.6% under setting [1]; 4.6% under setting [2]; 87.3% under setting [3]; 78.6% under setting [4]; 13.9% under setting [5]; 39.7% under setting [6]. Besides, the inhibition at 10 µM was 0.8% under setting [7]; 61.7% under setting [8]; -79.4% under setting [9]; -3.2% under setting [10]; 11.3% under setting [11]; 31.6% under setting [12].

As to `CCOc1cc(C(=O)N2CC[C@@H](N(C)C)C2)ccc1Nc1cc2c(cn1)N(C)C(=O)c1ccccc1N2C` [Compound 115], the inhibition at 10 µM is 18.4% under setting [1]; 1.5% under setting [2]; 92.5% under setting [3]; 80.1% under setting [4]; 68.3% under setting [5]; 83.5% under setting [6]. Moreover, the inhibition at 10 µM is -86.1% under setting [7]; 75.7% under setting [8]; -30.7% under setting [9]; 3.4% under setting [10]; 57.1% under setting [11]; 53.7% under setting [12].

For the origin of these results see patent publication US20170008888A1 (KYORIN PHARMACEUTICAL CO., LTD., priority 2014, published 2017).
